Assays:
[1] = system: HBV (HepG2.117 cell line, inducibly HBV producing); test: Anti-HBV activity, intracellular HBV DNA by real-time PCR in HepG2.117 cell line; format: cell-based, hepatitis B virus; conditions: HepG2.117 cells, 3 days of treatment
In short: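 Antiviral effect is expressed through intracellular HBV DNA levels, determined by real-time PCR with a virus-specific probe. These levels were measured after 3 days of treatment with compound dilutions, in HepG2.117 cells induced to replicate HBV.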

[2] = Human liver microsome stability; format: in vitro ADME; conditions: 1 μM compound, NADPH 1 mM, 37° C., 0-60 min; for HLM Metabolism t1/2: pooled human liver microsomes 0.5 mg/mL
In short: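 Half-life came from elimination rate constant (negative slope of ln compound/internal standard area ratio over time), measured by cassette LC-MS after acetonitrile quench. Human liver microsome reactions, one replicate per compound, were initiated with NADPH (1 mM final) and sampled at six points up to 60 min.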

[3] = system: HepG2 or HepG2.117 cells; test: Cytotoxicity, ATPlite Luminescence Assay; format: cell-based, human; conditions: 3-days incubation unless marked with *
In short: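 Compounds were added to cells and incubated 3 or 4 days. ATP content was then measured by luminescence to gauge cell viability.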

SMILES | EC50 [1] [µM] | HLM Metabolism t1/2 [2] [h] | CC50 [3] [µM] | half-life at 1 μM ([2]; human, pooled human liver microsomes, pH 7.4, pooled human liver microsomes 0.5 mg/mL, read-out: HLM Metabolism t1/2) [h]
CC(c1cnc(C(F)(F)F)cn1)N1C[C@@H](C)n2nc3c(c2C1=O)CN(C(=O)c1ccc(Cl)c(Cl)c1)[C@H](C)C3 (single isomer, unassigned) [Compound 7B, (3R,7R)-2-(3,4-dichlorobenzoyl)-3,7-dimethyl-9-((S*)-1-(5-(trifluoromethyl)pyrazin-2-yl)ethyl)-1,2,3,4,8,9-hexahydropyrido[4′,3′:3,4]pyrazolo[1,5-a]pyrazin-10(7H)-one] | 0.048 | >3 | 16.9 | –
CC(c1ccn(CC(F)(F)F)c(=O)c1)N1C[C@@H](C)n2nc3c(c2C1=O)CN(C(=O)c1ccc(Cl)c(Cl)c1)[C@H](C)C3 (single isomer, unassigned) [Compound 51B, (3R,7R)-2-(3,4-dichlorobenzoyl)-3,7-dimethyl-9-((S*)-1-(2-oxo-1-(2,2,2-trifluoroethyl)-1,2-dihydropyridin-4-yl)ethyl)-1,2,3,4,8,9-hexahydropyrido[4′,3′:3,4]pyrazolo[1,5-a]pyrazin-10(7H)-one] | 0.028 | >3 | > 50 | –
CC(c1ccn(C(F)F)c(=O)c1)N1C[C@@H](C)n2nc3c(c2C1=O)CN(C(=O)c1ccc(Cl)c(C(F)(F)F)c1)[C@H](C)C3 (single isomer, unassigned) [Compound 49B, (3R,7R)-2-(4-chloro-3-(trifluoromethyl)benzoyl)-9-((S*)-1-(1-(difluoromethyl)-2-oxo-1,2-dihydropyridin-4-yl)ethyl)-3,7-dimethyl-1,2,3,4,8,9-hexahydropyrido [4′,3′:3,4]pyrazolo[1,5-a]pyrazin-10(7H)-one] | 0.013 | >3 | > 50 | –
CC(c1ccc(C(C)(C)O)nc1)N1C[C@@H](C)n2nc3c(c2C1=O)CN(C(=O)c1cc(C(F)(F)F)c(Cl)cn1)[C@H](C)C3 (single isomer, unassigned) [Compound 58B, (3R,7R)-2-(5-chloro-4-(trifluoromethyl)picolinoyl)-9-((S*)-1-(6-(2-hydroxypropan-2-yl)pyridin-3-yl)ethyl)-3,7-dimethyl-1,2,3,4,8,9-hexahydropyrido[4′,3′:3,4]pyrazolo[1,5-a]pyrazin-10(7H)-one] | 0.19 | >3 | > 50 | –
CC(c1ccc(C(C)(C)O)nc1)N1C[C@@H](C)n2nc3c(c2C1=O)CN(C(=O)c1ccc(Cl)c(F)c1F)[C@H](C)C3 (single isomer, unassigned) [Compound 61B, (3R,7R)-2-(4-chloro-2,3-difluorobenzoyl)-9-((S*)-1-(6-(2-hydroxypropan-2-yl)pyridin-3-yl)ethyl)-3,7-dimethyl-1,2,3,4,8,9-hexahydropyrido[4′,3′:3,4]pyrazolo[1,5-a]pyrazin-10(7H)-one] | 0.3 | 2.25 | > 50 | –
CNC(=O)C(c1ccc(OC(F)F)cc1)N1C[C@@H](C)n2nc3c(c2C1=O)CN(C(=O)c1ccc(Cl)c(Cl)c1)[C@H](C)C3 (single isomer, unassigned) [Compound 23B, (S*)-2-((3R,7R)-2-(3,4-dichlorobenzoyl)-3,7-dimethyl-10-oxo-1,3,4,7,8,10-hexahydropyrido[4′,3′:3,4]pyrazolo[1,5-a]pyrazin-9(2H)-yl)-2-(4-(difluoromethoxy)phenyl)-N-methylacetamide] | 0.24 | >3 | 49.3 | –
CC(c1ccc(NS(C)(=O)=O)cn1)N1C[C@@H](C)n2nc3c(c2C1=O)CN(C(=O)c1ccc(Cl)c(C(F)(F)F)c1)[C@H](C)C3 (single isomer, unassigned) [Compound 33B, N-(6-((S*)-1-((3R,7R)-2-(4-chloro-3-(trifluoromethyl)benzoyl)-3,7-dimethyl-10-oxo-1,3,4,7,8,10-hexahydropyrido[4′,3′:3,4]pyrazolo[1,5-a]pyrazin-9(2H)-yl)ethyl)pyridin-3-yl)methanesulfonamide] | 0.043 | >3 | > 50 | –
C[C@@H]1Cc2nn3c(c2CN1C(=O)c1ccc(Cl)c(C(F)(F)F)c1)C(=O)N([C@@H](C)c1ccc([S@](C)(=O)=NC#N)cc1)C[C@H]3C (relative stereo) [Compound 20D, N—((S*)-(4-((S*)-1-((3R,7R)-2-(4-chloro-3-(trifluoromethyl)benzoyl)-3,7-dimethyl-10-oxo-1,3,4,7,8,10-hexahydropyrido[4′,3′:3,4]pyrazolo[1,5-a]pyrazin-9(2H)-yl)ethyl)phenyl)(methyl)(oxo)-16-sulfaneylidene)cyanamide] | 0.032 | 1.47 | > 50 | –
CC(c1ccc(C#N)cc1)N1C[C@@H](C)n2nc3c(c2C1=O)CN(C(=O)c1ccc(Cl)c(Cl)c1)[C@H](C)C3 (single isomer, unassigned) [Compound 66B, 4-((S*)-1-((3R,7R)-2-(3,4-dichlorobenzoyl)-3,7-dimethyl-10-oxo-1,3,4,7,8,10-hexahydropyrido[4′,3′:3,4]pyrazolo[1,5-a]pyrazin-9(2H)-yl)ethyl)benzonitrile] | 0.017 | >3 | 19.1 | –
CC(c1cnc(NC2CC2)nc1)N1C[C@@H](C)n2nc3c(c2C1=O)CN(C(=O)c1ccc(Cl)c(Cl)c1)[C@H](C)C3 (single isomer, unassigned) [Compound 37B, (3R,7R)-9-((S*)-1-(2-(cyclopropylamino)pyrimidin-5-yl)ethyl)-2-(3,4-dichlorobenzoyl)-3,7-dimethyl-1,2,3,4,8,9-hexahydropyrido[4′,3′:3,4]pyrazolo[1,5-a]pyrazin-10(7H)-one] | 0.041 | 0.892 | > 50 | –
CC(c1ccc(=O)n(C)n1)N1C[C@@H](C)n2nc3c(c2C1=O)CN(C(=O)c1ccc(Cl)c(Cl)c1)[C@H](C)C3 (single isomer, unassigned) [Compound 55B, (3R,7R)-2-(3,4-dichlorobenzoyl)-3,7-dimethyl-9-((S*)-1-(1-methyl-6-oxo-1,6-dihydropyridazin-3-yl)ethyl)-1,2,3,4,8,9-hexahydropyrido[4′,3′:3,4]pyrazolo[1,5-a]pyrazin-10(7H)-one] | 0.06 | >3 | > 50 | –
CC(c1cnc(C2CC2)cn1)N1C[C@@H](C)n2nc3c(c2C1=O)CN(C(=O)c1ccc(Cl)c(Cl)c1)[C@H](C)C3 (single isomer, unassigned) [Compound 3A, (3R,7R)-9-((R*)-1-(5-cyclopropylpyrazin-2-yl)ethyl)-2-(3,4-dichlorobenzoyl)-3,7-dimethyl-1,2,3,4,8,9-hexahydropyrido[4′,3′:3,4]pyrazolo[1,5-a]pyrazin-10(7H)-one] | 0.068 | – | 33.7 | > 3
CC(c1ccc(C(C)(C)O)nc1)N1C[C@@H](C)n2nc3c(c2C1=O)CN(C(=O)c1cc(F)c(Cl)c(F)c1)[C@H](C)C3 (single isomer, unassigned) [Compound 60B, (3R,7R)-2-(4-chloro-3,5-difluorobenzoyl)-9-((S*)-1-(6-(2-hydroxypropan-2-yl)pyridin-3-yl)ethyl)-3,7-dimethyl-1,2,3,4,8,9-hexahydropyrido[4′,3′:3,4]pyrazolo[1,5-a]pyrazin-10(7H)-one] | 0.052 | >3 | > 50 | –
Cc1nnc(C(C)N2C[C@@H](C)n3nc4c(c3C2=O)CN(C(=O)c2ccc(Cl)c(Cl)c2)[C@H](C)C4)o1 (single isomer, unassigned) [Compound 43B, (3R,7R)-2-(3,4-dichlorobenzoyl)-3,7-dimethyl-9-((S*)-1-(5-methyl-1,3,4-oxadiazol-2-yl)ethyl)-1,2,3,4,8,9-hexahydropyrido[4′,3′:3,4]pyrazolo[1,5-a]pyrazin-10(7H)-one] | 0.065 | >3 | > 50 | –
CC(c1ccc(S(C)(=O)=O)cc1)N1C[C@@H](C)n2nc3c(c2C1=O)CN(C(=O)c1ccc(Cl)c(Cl)c1)[C@H](C)C3 (single isomer, unassigned) [Compound 15B, (3R,7R)-2-(3,4-dichlorobenzoyl)-3,7-dimethyl-9-((S*)-1-(4-(methylsulfonyl)phenyl)ethyl)-1,2,3,4,8,9-hexahydropyrido[4′,3′:3,4]pyrazolo[1,5-a]pyrazin-10(7H)-one] | 0.019 | >3 | > 50 | –
Cc1ncnn1-c1ccc(C(C)N2C[C@@H](C)n3nc4c(c3C2=O)CN(C(=O)c2ccc(Cl)c(Cl)c2)[C@H](C)C4)cn1 (relative stereo) [Compound 25A, (3R,7R)-2-(3,4-dichlorobenzoyl)-3,7-dimethyl-9-((R*)-1-(6-(5-methyl-11H-1,2,4-triazol-1-yl)pyridin-3-yl)ethyl)-1,2,3,4,8,9-hexahydropyrido[4′,3′:3,4]pyrazolo[1,5-a]pyrazin-10(7H)-one] | 0.23 | >3 | > 50 | –
Cc1nnn(-c2ccc(C(C)N3C[C@@H](C)n4nc5c(c4C3=O)CN(C(=O)c3ccc(Cl)c(Cl)c3)[C@H](C)C5)cc2)n1 (single isomer, unassigned) [Compound 22B, (3R,7R)-2-(3,4-dichlorobenzoyl)-3,7-dimethyl-9-((S*)-1-(4-(5-methyl-2H-tetrazol-2-yl)phenyl)ethyl)-1,2,3,4,8,9-hexahydropyrido[4′,3′:3,4]pyrazolo[1,5-a]pyrazin-10(7H)-one] | 0.02 | 2.13 | > 50 | –
